Experimental data reported in patent publication US7635572B2, “Methods for conducting assays for enzyme activity on protein microarrays” (Life Technologies Corporation, priority 2004, dated 2009).

target: plurality of kinases (Table 5) (Homo sapiens, UniProt Q9UIK4); assay: Further analysis of a plurality of inhibitors and a plurality of kinases on microarray (Example IX, Table 5);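 note: inhibition of each kinase by the inhibitors is given as a qualitative level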;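 for Inhibition level, DAPK2: level 0 no or unclear inhibition to Level 2 substantial inhibition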;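 for Inhibition level, PTK2B: level 0 no or unclear inhibition to Level 2 substantial inhibition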;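 for Inhibition level, STK4: level 0 no or unclear inhibition to Level 2 substantial inhibition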;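 for Inhibition level, TGFBR2: level 0 none or unclear then 1 little or marginal then 2 substantial inhibition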; format: biochemical; conditions: plate H3; Genistein, conc. not given
Sequence (Q9UIK4 whole entry): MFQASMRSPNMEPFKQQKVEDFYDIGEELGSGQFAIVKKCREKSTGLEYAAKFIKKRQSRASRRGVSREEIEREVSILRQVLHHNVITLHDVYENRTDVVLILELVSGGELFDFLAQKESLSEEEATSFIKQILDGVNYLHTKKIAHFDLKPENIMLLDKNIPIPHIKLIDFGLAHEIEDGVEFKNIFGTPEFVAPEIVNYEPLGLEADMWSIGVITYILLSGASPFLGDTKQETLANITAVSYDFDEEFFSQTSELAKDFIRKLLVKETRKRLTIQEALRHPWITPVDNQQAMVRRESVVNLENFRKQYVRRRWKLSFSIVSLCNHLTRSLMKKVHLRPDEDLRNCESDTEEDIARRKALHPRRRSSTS

SMILES | Inhibition level, DAPK2
O=c1c(-c2ccc(O)cc2)coc2cc(O)cc(O)c12 [Genistein] | 0

same assay, conditions: plate H3; Ro-31-8220, conc. not given

SMILES | Inhibition level, DAPK2
Cn1cc(C2=C(c3cn(CCCSC(=N)N)c4ccccc34)C(=O)NC2=O)c2ccccc21 [Ro-31-8220] | 2

same assay, conditions: plate H3; Staurosporine, conc. not given

SMILES | Inhibition level, DAPK2
CN[C@@H]1C[C@H]2O[C@@](C)([C@@H]1OC)n1c3ccccc3c3c4c(c5c6ccccc6n2c5c31)C(=O)NC4 [Staurosporine] | 2

same assay, conditions: plate H3; inhibitor 100 uM

SMILES | Inhibition level, DAPK2
N#C/C(=C/c1ccc(O)c(O)c1)C(=O)NCc1ccccc1 [AG 490] | 2
O=c1c(-c2ccc(O)cc2)coc2cc(O)cc(O)c12 [Genistein] | 2
Cn1cc(C2=C(c3cn(CCCSC(=N)N)c4ccccc34)C(=O)NC2=O)c2ccccc21 [Ro-31-8220] | 2

target: plurality of kinases (Table 5) (Homo sapiens, UniProt P24723); assay: as above; format: biochemical; conditions: plate B3; Genistein, conc. not given
Sequence (P24723 whole entry): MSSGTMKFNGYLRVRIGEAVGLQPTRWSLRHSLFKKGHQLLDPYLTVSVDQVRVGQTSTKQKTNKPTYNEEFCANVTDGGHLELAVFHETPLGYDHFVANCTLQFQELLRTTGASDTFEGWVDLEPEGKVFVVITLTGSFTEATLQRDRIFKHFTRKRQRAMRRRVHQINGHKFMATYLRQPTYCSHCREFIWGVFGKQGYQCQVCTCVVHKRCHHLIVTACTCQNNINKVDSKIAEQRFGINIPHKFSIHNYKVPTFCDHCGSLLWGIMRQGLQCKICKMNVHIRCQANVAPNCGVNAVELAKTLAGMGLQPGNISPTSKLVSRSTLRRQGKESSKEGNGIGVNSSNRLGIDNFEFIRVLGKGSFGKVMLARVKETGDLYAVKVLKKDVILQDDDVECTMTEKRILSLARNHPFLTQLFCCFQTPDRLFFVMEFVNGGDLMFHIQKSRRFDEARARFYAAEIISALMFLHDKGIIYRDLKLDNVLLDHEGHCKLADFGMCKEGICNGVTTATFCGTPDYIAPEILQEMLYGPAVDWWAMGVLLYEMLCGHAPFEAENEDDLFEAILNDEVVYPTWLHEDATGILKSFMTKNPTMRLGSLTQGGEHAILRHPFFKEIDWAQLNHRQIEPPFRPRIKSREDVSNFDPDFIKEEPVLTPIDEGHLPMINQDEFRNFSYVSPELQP

SMILES | Inhibition level, PRKCH
O=c1c(-c2ccc(O)cc2)coc2cc(O)cc(O)c12 [Genistein] | 0

same assay, conditions: plate B3; Ro-31-8220, conc. not given

SMILES | Inhibition level, PRKCH
Cn1cc(C2=C(c3cn(CCCSC(=N)N)c4ccccc34)C(=O)NC2=O)c2ccccc21 [Ro-31-8220] | 2

same assay, conditions: plate B3; inhibitor 100 uM

SMILES | Inhibition level, PRKCH
N#C/C(=C/c1ccc(O)c(O)c1)C(=O)NCc1ccccc1 [AG 490] | 2
O=c1c(-c2ccc(O)cc2)coc2cc(O)cc(O)c12 [Genistein] | 2
Cn1cc(C2=C(c3cn(CCCSC(=N)N)c4ccccc34)C(=O)NC2=O)c2ccccc21 [Ro-31-8220] | 2

target: plurality of kinases (Table 5) (Homo sapiens, UniProt P37173); assay: as above; format: biochemical; conditions: plate C7; Genistein <3.7 mM
Sequence (P37173 23-567): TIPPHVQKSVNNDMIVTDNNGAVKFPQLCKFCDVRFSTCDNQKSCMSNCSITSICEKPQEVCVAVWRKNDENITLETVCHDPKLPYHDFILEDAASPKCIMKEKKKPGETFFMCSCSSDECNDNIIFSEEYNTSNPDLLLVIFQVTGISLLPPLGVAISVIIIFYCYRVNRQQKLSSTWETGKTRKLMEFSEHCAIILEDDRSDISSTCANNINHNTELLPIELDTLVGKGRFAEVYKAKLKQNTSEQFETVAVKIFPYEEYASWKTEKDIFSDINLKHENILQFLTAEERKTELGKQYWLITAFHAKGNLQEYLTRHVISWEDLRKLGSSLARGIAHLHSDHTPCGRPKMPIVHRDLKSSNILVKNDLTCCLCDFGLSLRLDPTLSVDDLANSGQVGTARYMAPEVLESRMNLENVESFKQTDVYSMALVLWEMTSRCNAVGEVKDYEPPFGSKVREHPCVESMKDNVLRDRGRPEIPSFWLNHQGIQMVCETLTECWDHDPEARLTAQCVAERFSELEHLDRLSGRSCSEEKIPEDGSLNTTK

SMILES | Inhibition level, TGFBR2
O=c1c(-c2ccc(O)cc2)coc2cc(O)cc(O)c12 [Genistein] | 1

same assay, conditions: plate C7; Ro-31-8220 90 uM

SMILES | Inhibition level, TGFBR2
Cn1cc(C2=C(c3cn(CCCSC(=N)N)c4ccccc34)C(=O)NC2=O)c2ccccc21 [Ro-31-8220] | 2

same assay, conditions: plate C7; Staurosporine 21.5 uM

SMILES | Inhibition level, TGFBR2
CN[C@@H]1C[C@H]2O[C@@](C)([C@@H]1OC)n1c3ccccc3c3c4c(c5c6ccccc6n2c5c31)C(=O)NC4 [Staurosporine] | 2

same assay, conditions: plate C7; inhibitor 100 uM

SMILES | Inhibition level, TGFBR2
N#C/C(=C/c1ccc(O)c(O)c1)C(=O)NCc1ccccc1 [AG 490] | 2
O=c1c(-c2ccc(O)cc2)coc2cc(O)cc(O)c12 [Genistein] | 2
Cn1cc(C2=C(c3cn(CCCSC(=N)N)c4ccccc34)C(=O)NC2=O)c2ccccc21 [Ro-31-8220] | 2

target: T1, plurality of kinases (Table 5) (Homo sapiens, UniProt P51813); assay: as above; format: biochemical; conditions: plate B12; inhibitor 100 uM
T1 sequence (P51813 1-675): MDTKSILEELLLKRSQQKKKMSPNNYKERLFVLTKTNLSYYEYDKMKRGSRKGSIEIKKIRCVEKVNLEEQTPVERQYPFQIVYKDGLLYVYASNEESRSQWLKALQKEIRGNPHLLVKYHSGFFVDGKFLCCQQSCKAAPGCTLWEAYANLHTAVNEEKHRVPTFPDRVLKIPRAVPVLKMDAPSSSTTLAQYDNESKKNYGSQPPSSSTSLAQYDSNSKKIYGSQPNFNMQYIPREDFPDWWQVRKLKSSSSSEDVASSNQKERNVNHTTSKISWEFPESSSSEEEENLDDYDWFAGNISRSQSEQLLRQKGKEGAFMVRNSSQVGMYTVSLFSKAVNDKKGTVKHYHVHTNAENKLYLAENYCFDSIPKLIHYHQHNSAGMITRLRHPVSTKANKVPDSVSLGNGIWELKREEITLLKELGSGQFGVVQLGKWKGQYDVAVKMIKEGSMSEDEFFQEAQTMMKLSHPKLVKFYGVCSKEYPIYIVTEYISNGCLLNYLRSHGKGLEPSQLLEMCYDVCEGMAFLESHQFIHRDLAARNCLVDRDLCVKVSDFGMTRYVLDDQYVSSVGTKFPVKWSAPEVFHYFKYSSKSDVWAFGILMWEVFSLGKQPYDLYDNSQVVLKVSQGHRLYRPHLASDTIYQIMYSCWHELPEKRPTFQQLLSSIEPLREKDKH

SMILES | Inhibition level, BMX
N#C/C(=C/c1ccc(O)c(O)c1)C(=O)NCc1ccccc1 [AG 490] | 0
O=c1c(-c2ccc(O)cc2)coc2cc(O)cc(O)c12 [Genistein] | 0
Cn1cc(C2=C(c3cn(CCCSC(=N)N)c4ccccc34)C(=O)NC2=O)c2ccccc21 [Ro-31-8220] | 2

target: plurality of kinases (Table 5) (Homo sapiens, UniProt Q14289); assay: as above; format: biochemical; conditions: plate G5; Ro-31-8220 90 uM
Sequence (Q14289 whole entry): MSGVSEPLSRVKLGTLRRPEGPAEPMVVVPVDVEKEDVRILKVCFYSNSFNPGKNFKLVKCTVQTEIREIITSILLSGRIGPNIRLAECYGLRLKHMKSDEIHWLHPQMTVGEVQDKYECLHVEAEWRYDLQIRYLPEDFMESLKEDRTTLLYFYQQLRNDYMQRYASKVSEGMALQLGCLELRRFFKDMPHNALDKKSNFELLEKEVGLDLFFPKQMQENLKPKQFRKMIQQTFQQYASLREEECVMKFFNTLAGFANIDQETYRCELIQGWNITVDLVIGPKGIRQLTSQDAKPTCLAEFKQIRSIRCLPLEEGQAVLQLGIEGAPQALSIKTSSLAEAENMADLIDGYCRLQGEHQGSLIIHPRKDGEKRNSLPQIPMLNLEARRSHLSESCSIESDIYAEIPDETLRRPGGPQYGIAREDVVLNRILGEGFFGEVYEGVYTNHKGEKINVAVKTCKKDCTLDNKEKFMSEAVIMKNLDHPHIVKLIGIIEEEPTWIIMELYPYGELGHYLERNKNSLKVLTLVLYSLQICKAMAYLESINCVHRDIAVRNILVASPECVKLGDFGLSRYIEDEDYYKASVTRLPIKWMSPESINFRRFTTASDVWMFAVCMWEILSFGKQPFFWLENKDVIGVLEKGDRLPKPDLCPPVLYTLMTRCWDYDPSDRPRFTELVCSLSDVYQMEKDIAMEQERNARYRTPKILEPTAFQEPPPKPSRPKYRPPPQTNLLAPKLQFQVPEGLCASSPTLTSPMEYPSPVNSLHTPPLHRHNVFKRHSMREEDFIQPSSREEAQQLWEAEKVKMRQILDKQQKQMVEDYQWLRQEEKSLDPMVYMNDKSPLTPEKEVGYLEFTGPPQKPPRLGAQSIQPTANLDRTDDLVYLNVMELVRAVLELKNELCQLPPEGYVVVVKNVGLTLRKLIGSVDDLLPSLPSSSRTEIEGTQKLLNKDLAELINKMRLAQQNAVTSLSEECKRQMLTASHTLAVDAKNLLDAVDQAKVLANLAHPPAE

SMILES | Inhibition level, PTK2B
Cn1cc(C2=C(c3cn(CCCSC(=N)N)c4ccccc34)C(=O)NC2=O)c2ccccc21 [Ro-31-8220] | 0

same assay, conditions: plate G5; Staurosporine 21.5 uM

SMILES | Inhibition level, PTK2B
CN[C@@H]1C[C@H]2O[C@@](C)([C@@H]1OC)n1c3ccccc3c3c4c(c5c6ccccc6n2c5c31)C(=O)NC4 [Staurosporine] | 0

same assay, conditions: plate G5; inhibitor 100 uM

SMILES | Inhibition level, PTK2B
N#C/C(=C/c1ccc(O)c(O)c1)C(=O)NCc1ccccc1 [AG 490] | 2
O=c1c(-c2ccc(O)cc2)coc2cc(O)cc(O)c12 [Genistein] | 2
Cn1cc(C2=C(c3cn(CCCSC(=N)N)c4ccccc34)C(=O)NC2=O)c2ccccc21 [Ro-31-8220] | 2

target: T2, plurality of kinases (Table 5) (Homo sapiens, UniProt Q13043); assay: as above; format: biochemical; conditions: plate D6; Genistein, conc. not given
T2 sequence (Q13043 1-487): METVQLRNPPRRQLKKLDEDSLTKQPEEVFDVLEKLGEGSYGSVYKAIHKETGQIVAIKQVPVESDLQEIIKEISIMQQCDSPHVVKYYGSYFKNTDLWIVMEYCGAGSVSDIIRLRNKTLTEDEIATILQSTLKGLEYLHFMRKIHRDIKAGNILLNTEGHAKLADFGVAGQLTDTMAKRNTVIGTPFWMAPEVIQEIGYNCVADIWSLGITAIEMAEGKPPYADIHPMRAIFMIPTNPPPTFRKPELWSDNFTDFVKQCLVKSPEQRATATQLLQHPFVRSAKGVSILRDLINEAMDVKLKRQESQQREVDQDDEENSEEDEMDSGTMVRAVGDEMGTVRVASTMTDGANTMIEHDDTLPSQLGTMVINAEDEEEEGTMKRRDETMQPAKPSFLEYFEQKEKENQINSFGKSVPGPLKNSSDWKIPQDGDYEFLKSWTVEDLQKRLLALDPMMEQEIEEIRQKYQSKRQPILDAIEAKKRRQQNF

SMILES | Inhibition level, STK4
O=c1c(-c2ccc(O)cc2)coc2cc(O)cc(O)c12 [Genistein] | 0

same assay, conditions: plate D6; Ro-31-8220, conc. not given

SMILES | Inhibition level, STK4
Cn1cc(C2=C(c3cn(CCCSC(=N)N)c4ccccc34)C(=O)NC2=O)c2ccccc21 [Ro-31-8220] | 0

same assay, conditions: plate D6; Staurosporine, conc. not given

SMILES | Inhibition level, STK4
CN[C@@H]1C[C@H]2O[C@@](C)([C@@H]1OC)n1c3ccccc3c3c4c(c5c6ccccc6n2c5c31)C(=O)NC4 [Staurosporine] | 0

same assay, conditions: plate D6; inhibitor 100 uM

SMILES | Inhibition level, STK4
N#C/C(=C/c1ccc(O)c(O)c1)C(=O)NCc1ccccc1 [AG 490] | 0
O=c1c(-c2ccc(O)cc2)coc2cc(O)cc(O)c12 [Genistein] | 0
Cn1cc(C2=C(c3cn(CCCSC(=N)N)c4ccccc34)C(=O)NC2=O)c2ccccc21 [Ro-31-8220] | 2

target: plurality of kinases (Table 5) (Homo sapiens, UniProt P07948); assay: as above; format: biochemical; conditions: not given
Sequence (P07948 whole entry): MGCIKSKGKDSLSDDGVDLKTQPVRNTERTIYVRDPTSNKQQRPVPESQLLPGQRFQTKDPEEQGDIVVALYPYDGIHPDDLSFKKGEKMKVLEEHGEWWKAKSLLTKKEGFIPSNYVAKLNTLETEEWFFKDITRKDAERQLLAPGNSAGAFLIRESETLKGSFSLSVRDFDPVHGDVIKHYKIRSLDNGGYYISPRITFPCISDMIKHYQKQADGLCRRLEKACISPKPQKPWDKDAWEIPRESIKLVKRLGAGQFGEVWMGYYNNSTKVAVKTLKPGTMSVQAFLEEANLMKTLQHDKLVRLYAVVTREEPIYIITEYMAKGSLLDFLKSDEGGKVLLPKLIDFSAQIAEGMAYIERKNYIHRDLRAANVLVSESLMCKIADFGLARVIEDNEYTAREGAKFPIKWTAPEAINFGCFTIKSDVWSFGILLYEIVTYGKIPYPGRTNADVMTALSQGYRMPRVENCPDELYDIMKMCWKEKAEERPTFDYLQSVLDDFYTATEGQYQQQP

SMILES | Inhibition level, LYN
CN[C@@H]1C[C@H]2O[C@@](C)([C@@H]1OC)n1c3ccccc3c3c4c(c5c6ccccc6n2c5c31)C(=O)NC4 [Staurosporine] | 0

same assay, conditions: plate A5, Domain 0; Genistein <3.7 mM

SMILES | Inhibition level, LYN
O=c1c(-c2ccc(O)cc2)coc2cc(O)cc(O)c12 [Genistein] | 2

same assay, conditions: plate A5, Domain 0; Ro-31-8220 90 uM

SMILES | Inhibition level, LYN
Cn1cc(C2=C(c3cn(CCCSC(=N)N)c4ccccc34)C(=O)NC2=O)c2ccccc21 [Ro-31-8220] | 0

same assay, conditions: plate A5, Domain 0; inhibitor 100 uM

SMILES | Inhibition level, LYN
N#C/C(=C/c1ccc(O)c(O)c1)C(=O)NCc1ccccc1 [AG 490] | 2
O=c1c(-c2ccc(O)cc2)coc2cc(O)cc(O)c12 [Genistein] | 2
Cn1cc(C2=C(c3cn(CCCSC(=N)N)c4ccccc34)C(=O)NC2=O)c2ccccc21 [Ro-31-8220] | 2

target: T3, plurality of kinases (Table 5) (Homo sapiens, UniProt P54753); assay: as above; format: biochemical; conditions: plate B5; Genistein, conc. not given
T3 sequence (P54753 34-998): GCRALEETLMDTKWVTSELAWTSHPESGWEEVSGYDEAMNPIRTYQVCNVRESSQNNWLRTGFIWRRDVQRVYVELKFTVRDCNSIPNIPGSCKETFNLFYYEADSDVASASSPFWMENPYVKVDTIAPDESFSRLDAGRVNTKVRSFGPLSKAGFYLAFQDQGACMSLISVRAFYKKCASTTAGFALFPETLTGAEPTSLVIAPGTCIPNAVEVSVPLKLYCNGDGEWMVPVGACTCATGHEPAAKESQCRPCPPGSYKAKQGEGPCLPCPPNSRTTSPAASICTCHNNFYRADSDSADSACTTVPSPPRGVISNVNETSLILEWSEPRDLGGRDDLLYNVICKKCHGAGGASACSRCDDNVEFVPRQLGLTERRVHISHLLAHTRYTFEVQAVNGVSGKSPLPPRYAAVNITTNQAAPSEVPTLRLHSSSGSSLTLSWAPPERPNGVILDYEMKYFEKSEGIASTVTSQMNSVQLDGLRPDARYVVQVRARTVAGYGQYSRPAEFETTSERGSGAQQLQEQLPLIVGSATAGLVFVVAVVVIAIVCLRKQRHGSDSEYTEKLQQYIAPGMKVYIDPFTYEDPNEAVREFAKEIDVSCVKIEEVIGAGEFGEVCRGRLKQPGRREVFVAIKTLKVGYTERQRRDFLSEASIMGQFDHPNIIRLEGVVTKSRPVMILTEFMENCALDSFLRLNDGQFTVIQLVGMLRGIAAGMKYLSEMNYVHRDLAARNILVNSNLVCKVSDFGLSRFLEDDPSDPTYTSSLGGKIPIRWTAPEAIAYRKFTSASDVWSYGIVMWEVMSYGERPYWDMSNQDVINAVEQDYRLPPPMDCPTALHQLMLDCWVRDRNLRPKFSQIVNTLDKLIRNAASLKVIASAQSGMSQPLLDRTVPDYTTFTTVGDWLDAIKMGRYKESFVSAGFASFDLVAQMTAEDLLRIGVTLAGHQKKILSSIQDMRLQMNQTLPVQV

SMILES | Inhibition level, EPHB3
O=c1c(-c2ccc(O)cc2)coc2cc(O)cc(O)c12 [Genistein] | 0

same assay, conditions: plate B5; Ro-31-8220, conc. not given

SMILES | Inhibition level, EPHB3
Cn1cc(C2=C(c3cn(CCCSC(=N)N)c4ccccc34)C(=O)NC2=O)c2ccccc21 [Ro-31-8220] | 0

same assay, conditions: plate B5; Staurosporine, conc. not given

SMILES | Inhibition level, EPHB3
CN[C@@H]1C[C@H]2O[C@@](C)([C@@H]1OC)n1c3ccccc3c3c4c(c5c6ccccc6n2c5c31)C(=O)NC4 [Staurosporine] | 0

same assay, conditions: plate B5; inhibitor 100 uM

SMILES | Inhibition level, EPHB3
N#C/C(=C/c1ccc(O)c(O)c1)C(=O)NCc1ccccc1 [AG 490] | 2
O=c1c(-c2ccc(O)cc2)coc2cc(O)cc(O)c12 [Genistein] | 2
Cn1cc(C2=C(c3cn(CCCSC(=N)N)c4ccccc34)C(=O)NC2=O)c2ccccc21 [Ro-31-8220] | 2
